Measured values as given in patent publication EP0731710B1, “THYMOSINE ALPHA 1 CONTAINING COMPOSITIONS FOR THE TREATMENT OF PATIENTS HAVING DECOMPENSATED LIVER DISEASE” (ALPHA 1 BIOMEDICALS, INC., priority 1993, dated 2003).
No end group written: not given here.

Test: Tolerability / adverse effects of Thymosin alpha 1 in patients with cirrhosis and hepatic decompensation
Type: in vivo, patient
Procedure: Patient 2 was a person with very far-advanced cirrhosis secondary to long-standing chronic Hepatitis B infection. Their findings included jaundice, weakness, severe encephalopathy, hepato-renal syndrome with renal failure, and portal gastropathy secondary to increased portal vein pressure. They received Thymosin alpha 1 at a dose of 1.6 mg subcutaneously twice weekly under a compassionate use protocol in an attempt to cure their Hepatitis B virus infection so that they could received a liver transplant. […] Death was associated with complications of portal hypertension and cirrhosis, and not due to therapy with Thymosin alpha 1.
They were started on Thymosin alpha 1 at a dose of 1.6 mg subcutaneously twice weekly, with the intention of treating them for 26 weeks. […] However, their therapy was discontinued after 46 injections because of complications of the cirrhosis. They expired about three weeks after their last injection. Their death was attributed to bleeding esophageal varices and hepatoma.
In summary, the above three patients with cirrhosis and hepatic decompensation received Thymosin alpha 1 at a dose of 1.6 mg subcutaneously twice weekly for periods varying from 3.5 weeks to 6 months. In each case, the intent of therapy was to cure chronic Hepatitis B virus infection so that the patient could be considered for transplant. […] Two other patients, both of whom had far-advanced disease, died of complications of cirrhosis, with no evidence that Thymosin alpha 1 contributed to their deaths.

## Ac-SDAAVDTSSEITTKDLKEKKEVVEEAEN [Thymosin alpha 1]
Patient 2, 1.6 mg subcutaneously twice weekly, 3 1/2 weeks of therapy
  side effects: no side effects
Patient 3, 1.6 mg subcutaneously twice weekly, 46 injections
  adverse effects: no adverse effects
Three patients with cirrhosis and hepatic decompensation, 1.6 mg subcutaneously twice weekly for 3.5 weeks to 6 months
  adverse effects due to Tα1: None of the patients reported any adverse effects
